Test results as given in patent US20250049737A1, “Lauflumide and derivatives thereof for treating chronic fatigue syndrome and myalgic encephalomyelitis/chronic fatigue syndrome (ME/CFS)” (NLS Pharmaceutics AG, priority 2021, published 2025).

Target: T1, Relaxin-3 (RXFP3) (h) (agonist radioligand) (Homo sapiens, UniProt Q9NSD7)
T1 sequence (Q9NSD7 1-469): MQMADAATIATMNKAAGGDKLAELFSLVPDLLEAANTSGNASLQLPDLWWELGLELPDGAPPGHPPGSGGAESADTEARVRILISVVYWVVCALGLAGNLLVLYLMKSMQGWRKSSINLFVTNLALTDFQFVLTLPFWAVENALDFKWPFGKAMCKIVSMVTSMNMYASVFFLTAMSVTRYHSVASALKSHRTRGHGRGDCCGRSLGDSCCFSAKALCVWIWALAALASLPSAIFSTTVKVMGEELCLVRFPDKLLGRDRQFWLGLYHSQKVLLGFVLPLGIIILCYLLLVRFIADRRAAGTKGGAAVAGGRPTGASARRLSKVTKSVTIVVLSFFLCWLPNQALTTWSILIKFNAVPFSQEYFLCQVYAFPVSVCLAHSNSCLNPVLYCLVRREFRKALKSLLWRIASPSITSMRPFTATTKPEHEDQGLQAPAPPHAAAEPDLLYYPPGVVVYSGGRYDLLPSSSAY
Test: RXFP3 assay (Eurofins/leadHunter GPCR Biosensor cAMP Hunter)
Assay type: cell-based
Description: Lauflumide is found to weakly bind with RXFP3 receptors (Study US073-0006869-Q Eurofins/leadHunter 8/1/19; unpublished data) (Table 1).
In these assays' compounds were tested in agonist and antagonist mode with the GPCR Biosensor Assays and match to this design:
1. cAMP Hunter cell lines were expanded from freezer stocks according to standard procedures.
2. Cells were seeded in a total volume of 20 μL into white walled, 384-well microplates and incubated at 37° C. for the appropriate time prior to testing.
3. cAMP modulation was determined using the DiscoverX HitHunter cAMP XS+ assay.
1. For agonist determination, cells were incubated with sample in the presence of EC80 forskolin to induce response.
2. Media was aspirated from cells and replaced with 15 μL 2:1 HBSS/10 mM Hepes: cAMP XS+ Ab reagent.
3. […]
2. Microplates were read following signal generation with a PerkinElmer Envision™ instrument for chemiluminescent signal detection.
1. Compound activity was analyzed using CBIS data analysis suite (ChemInnovation, CA).
5. For Gi agonist mode assays, percentage activity is calculated using the following formula: […]
8. For Gi antagonist or negative allosteric mode assays, percentage inhibition is calculated using the following formula: % Inhibition=100%×(mean RLU of test sample−mean RLU of EC80 control)/(mean RLU of forskolin positive control−mean RLU of […]

SMILES: NC(=O)C[S@@+]([O-])C(c1ccc(F)cc1)c1ccc(F)cc1 [Lauflumide, 2-[(R)-((bis(4-fluorophenyl)methane)sulfinyl)]acetamide]
- % Inhibition at 10^−5M: 23.9%
